Assay results taken from the supplement of paper PMC10307832.

Tests used:
Assay in all cases: relative viability (nuclei count vs DMSO), 5 days (fraction); higher = more cells survive
[1] = compound: C1=CC=C(C(=C1)C2=CC=C(C=C2)C3=CSC4=C3C(=C(C(=O)N4)C#N)O)O
Procedure, shortened: (§1)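 Lung cancer cell lines in 1536-well plates were exposed by pinning to five library-drug doses (not always all listed) √10 apart, following an overnight hold at 37 °C. MetaXpress counted Hoechst-stained nuclei from 4× images taken after 5 days without medium change. Viability is the median ratio of treated-well to vehicle-well nuclei across plates. Plates required control CV below 25% and at least one doubling.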

TGX 221 = compound: CC1=CN2C(=O)C=C(N=C2C(=C1)C(C)NC3=CC=CC=C3)N4CCOCC4 [TGX 221]
Procedure, shortened: as §1

Ricolinostat = compound: O=C(CCCCCCNC(=O)c1cnc(N(c2ccccc2)c2ccccc2)nc1)NO [Ricolinostat]
Procedure, shortened: as §1

[2] = compound: C1=CC=C(C(=C1)C2=CC=C(C=C2)C3=CSC4=C3C(=C(C(=O)N4)C#N)O)O + COc1cc2c(Oc3ccc(NC(=O)C4(C(=O)Nc5ccc(F)cc5)CC4)cc3F)ccnc2cc1OCCCN1CCOCC1 [Foretinib] (partner 0.25 µM)
Procedure, shortened: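 One day after seeding in 1536-well plates, lung cancer cell lines were dosed by pin tool. Dosing was either single-drug or a fixed anchor-drug dose plus five library-drug doses (not always all listed) in √10 steps. After 5 days, nuclei were stained in one fix-and-stain step and counted on 4× images, and relative viability is the nuclei count of treated wells over that of vehicle wells, given as the median of duplicate plates.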

Cell Line | relative viability ([1]; 0.08 µM) | relative viability ([1]; 0.253 µM) | relative viability ([1]; 0.8 µM) | relative viability ([1]; 2.53 µM) | relative viability ([1]; 8 µM) | relative viability (TGX 221; 0.08 µM) | relative viability (TGX 221; 0.253 µM) | relative viability (TGX 221; 0.8 µM) | relative viability (TGX 221; 2.53 µM) | relative viability (TGX 221; 8 µM) | relative viability (Ricolinostat; 0.08 µM) | relative viability (Ricolinostat; 0.253 µM) | relative viability (Ricolinostat; 0.8 µM) | relative viability (Ricolinostat; 2.53 µM) | relative viability ([2]; first compound 0.08 µM) | relative viability ([2]; first compound 0.253 µM) | relative viability ([2]; first compound 0.8 µM) | relative viability ([2]; first compound 2.53 µM) | relative viability ([2]; first compound 8 µM)
HOP-62 | 1.08 | 1.12 | 1 | 1.08 | 0.82 | 0.965 | 1.06 | 1.04 | 1.09 | 1.09 | 0.932 | 0.987 | 1.03 | 0.913 | 1.15 | 1.01 | 1.17 | 1.28 | 1
NCI-H1975 | 0.892 | 0.949 | 0.932 | 0.887 | 0.772 | 0.911 | 0.866 | 0.998 | 0.844 | 0.785 | 0.928 | 0.895 | 0.803 | 0.872 | 0.889 | 0.822 | 0.967 | 1 | 0.84
NCI-H838 | 0.893 | 1.06 | 0.98 | 0.882 | 0.824 | 0.946 | 0.833 | 0.886 | 0.83 | 0.761 | 0.822 | 1.05 | 0.981 | 0.95 | 1.06 | 0.981 | 1.05 | 0.954 | 0.91
NCI-H2085 | 0.905 | 1.13 | 0.982 | 0.964 | 0.917 | 1.01 | 0.933 | 0.863 | 0.644 | 0.585 | – | 0.986 | 0.972 | 0.88 | 1.05 | 0.9 | 0.958 | 0.852 | 0.797
NCI-H3122 | 0.974 | 1.03 | 1.03 | 1.08 | 0.843 | 1 | 0.985 | 1.02 | 0.969 | 1.01 | 0.94 | 1.01 | 0.992 | 1.07 | 0.954 | 1.05 | 1.01 | 1.06 | 0.978
HCC-15 | 0.958 | 1.14 | 1.04 | 1.04 | 0.904 | 0.945 | 0.965 | 0.9 | 0.916 | 0.969 | 0.847 | 0.94 | 0.983 | 0.938 | 0.996 | 1.1 | 1.13 | 1.12 | 0.898
LU99A | 0.984 | 0.905 | 0.95 | 0.89 | 0.911 | 0.859 | 0.857 | 0.896 | 0.89 | 0.981 | 0.877 | 0.926 | 0.865 | 0.641 | 0.89 | 0.86 | 0.754 | 0.83 | 0.797
NCI-H1703 | 0.929 | 0.965 | 0.902 | 0.892 | 0.789 | 0.892 | 0.785 | 0.776 | 0.672 | 0.634 | – | 1.01 | 0.928 | 1 | 0.284 | 0.355 | 0.35 | 0.363 | 0.409
UMC-11 | 0.793 | 0.892 | 1.07 | 0.921 | 0.813 | 0.957 | 0.91 | 1 | 0.976 | 1.08 | 0.889 | 0.945 | 0.866 | 0.464 | 0.809 | 0.855 | 1.15 | 1.19 | 0.858
NCI-H2405 | 0.977 | 0.995 | 0.927 | 0.958 | 0.955 | 0.949 | 0.991 | 0.968 | 0.954 | 0.889 | 0.878 | 1 | 1.01 | 0.802 | 1.05 | 1.04 | 1.01 | 1.01 | 0.983
NCI-H1915 | 0.967 | 1.06 | 0.892 | 1.05 | 0.869 | 0.937 | 0.985 | 0.993 | 0.871 | 0.994 | 0.899 | 0.968 | 0.976 | 0.862 | 1.12 | 1.24 | – | 1.08 | 0.747
NCI-H2228 | 1.08 | 1.1 | 1.19 | 1.07 | 0.782 | 0.831 | 0.97 | 1.04 | 0.846 | 0.996 | 0.99 | 0.981 | 0.944 | 0.921 | 0.764 | 0.871 | 0.96 | 0.847 | 0.588
NCI-H322M | 0.866 | 0.918 | 0.95 | 0.949 | 0.96 | 0.876 | 0.875 | 0.904 | 0.801 | 0.841 | – | 0.964 | 0.958 | 0.923 | 1.01 | 1.02 | 0.935 | 1.02 | 0.954
LK-2 | 0.724 | 0.922 | 1.11 | 0.918 | 0.71 | 0.986 | 0.878 | 0.914 | 0.996 | 1.1 | 0.967 | 0.999 | 1 | 0.899 | – | 1.01 | 1.37 | 1.3 | 1.7
LXF-289 | 0.936 | 1.02 | 1 | 1.06 | 0.969 | 1.03 | 0.98 | 1.03 | 0.984 | 1.04 | 0.994 | 0.972 | 1 | 0.968 | 0.999 | 0.959 | 0.993 | 1.05 | 1.04
PC-3 [JPC-3] | 0.898 | 1.11 | 0.959 | 1.08 | 0.944 | 0.971 | 1.05 | 1.04 | 0.998 | 1.03 | 0.801 | 0.977 | 1.01 | 0.883 | 1.05 | 1.01 | 1.02 | 1.05 | 0.995
BEN | 0.883 | 0.951 | 0.966 | 0.999 | 0.811 | 0.914 | 0.856 | 0.918 | 0.899 | 0.937 | 0.743 | 0.966 | 0.754 | 0.694 | 0.503 | 0.611 | 0.668 | 0.646 | 0.634
